From patent US12085575B2, “Compositions and methods for detecting proteinopathies” (BOARD OF SUPERVISORS OF LOUISIANA STATE UNIVERSITY AND …, priority 2011, dated 2024)

Tests used:
Format in all cases: cell-based, human
[1] = tested on: polyubiquitylated proteins; assay: Camptothecin-induced degradation of polyubiquitylated proteins in A-T cells; conditions: CPT 10 μm, 24 hr
Description: To test the generality of this observation, the anticancer drug camptothecin (CPT), a genotoxic agent (37, 48-50), which is known to sensitize A-T cells (37), like UV, was used to induce degradation of polyubiquitylated proteins in A-T cells. In FIG. 8E, A-T cells were treated with camptothecin (CPT; 10 μm) in the presence or absence of Bafl (1 nm) for 24 hr. Ubiquitin conjugated proteins using anti-ubiquitin antibodies were detected as described herein for FIG. 8A. The experiment was repeated three times.

[2] = tested on: Mfn2; assay: Mfn2 modification and degradation in A-T/LV shRNA cells treated with mitochondrial depolarizing agents
Description: Immunoblotting Analysis of Mitochondrial Proteins—Mitochondria were isolated from A-T/LV control and ISG15 shRNA cells using the Miochondrial Isolation Kit (Thermo Scientific Company, 89874). The Dounce homogenization protocol described by the manufacturer was used to isolate mitochondria from cells. Mitochondrial pellets were resuspended in lysis buffer containing 50 mM Tris pH 7.5 and 4% (v/v) SDS. Samples were homogenized and boiled for 10 min. Lysates containing equal protein were then mixed with 6× Laemmli SDS sample buffer (3× final concentration). Samples were boiled again and mitochondrial proteins were analyzed by SDS-PAGE. Immunoblotting analyses using either anti-ISG15 (raised against human ISG15) (20), anti-ubiquitin (gift from Dr. Arthur Haas, at LSUHSC—New Orleans), or anti-mitofusin 2 (Abcam, ab88569) antibodies were carried out using the ECL Western procedure (Pierce, 34076) and the BioRad VersaDoc Imaging System (BioRad). Immunoblotting Analysis of HA Polyubiquitylated Proteins in Cells: Cells were transfected with HA-ubiquitin using the PolyFect transfection reagent (Qiagen, 301105). Twenty four hours after transfection, mitochondria were isolated as described above. Mitochondrial lysis, SDS-PAGE, and immunoblotting analysis to detect HA-ubiquitin conjugated proteins using anti-HA antibodies were carried out as described above. Immunoblotting Analysis of Mfn2 in Cells: Cells were lysed in lysis buffer containing 50 mM Tris-HCl, pH 7.5, 2% SDS, and protease inhibitor cocktail. Lysates were sonicated, boiled, and cleared by centrifugation. Lysates containing equal protein were then mixed with 6× Laemmli SDS sample buffer (3× final concentration). Samples were boiled again and proteins were separated by 15% SDS-PAGE. Immunoblotting analysis was carried out using anti-Mfn2 antibodies (Abcam) as described above. Intensity of the Mfn2 bands was quantitated using BioRad Quantity One software. Statistical analysis—Statistical analysis was carried out using GraphPad software.
Many outer mitochondrial membrane (OMM) proteins are ubiquitylated and degraded via the 26S proteasome prior to mitophagy in cells treated with the mitochondrial depolarizing agents (28,29). To test whether ISG15 inhibits polyubiquitylation of OMM proteins, we assessed the fate of Mfn2, an OMM protein and proteasome substrate, in A-T/LV-control and A-T/LV-ISG15-silenced cells treated with two different mitochondrial depolarizing agents, valinomycin and carbonylcyanide m-chlorophenylhydrazone (CCCP). Consistent with the literature reports (29,35,36), we observed a ladder of high molecular weight anti-Mfn2 cross-reactive bands above the 86 kDa Mfn2 protein band that is reminiscent of polyubiquitylation, in both ISG15-silenced and ISG15 overexpressing A-T cells (FIGS. 34 A and B, left panels). The endogenous level of these high molecular weight Mfn2 cross-reactive bands was remarkably higher in ISG15-silenced as compared to the ISG15-overexpressing A-T cells in the absence of any drugs (FIGS. 34A and B, first panels, compare lanes 1 and 4). […] In contrast, the level of these Mfn2 cross-reactive high molecular weight bands decreased under the same drug treatment conditions in ISG15-silenced A-T cells (FIGS. 34A and B, first panels, lanes 4-6, and the accompanying bar graph in the second panel for quantitation). […] The bar graphs in FIGS. 34A and B, third panels, show mean values of the ratio between free Mfn2 (86 kDa band) and actin proteins (±SEM) in CCCP-treated A-T/LV-control and ISG15 shRNA cells measured from eight independent experiments, and valinomycin-treated A-T/LV-control and ISG15 shRNA cells measured from three independent experiments respectively.

[3] = tested on: Mfn2; assay: MFN2 modification and degradation in HEK293 cells treated with CCCP; conditions: HEK cells, CCCP 10 μM, 24 h
Source text: MFN2 is conjugated to SUMO-1/2/3 and ubiquitin, and is degraded in HEK293 cells treated with CCCP. We confirmed CCCP-induced MFN2-SUMO/ubiquitin modification and degradation in “normal” HEK293 cells. […] However, CCCP-mediated decrease in MFN2 was proteasome-dependent (FIG. 37D). Together, our results using A-T and HEK293 cells reveal that MFN2 is SUMOylated in response to CCCP treatment.

Structure (SMILES) | degradation of endogenous polyubiquitylated proteins [1] | free MFN2 protein level ([2]; CCCP-treated ISG15 overexpressing A-T cells) | decrease in the free MFN2 level ([2]; ISG15-silenced A-T cells, CCCP 24 h, cell lysates and immunoprecipitates) [%] | free Mfn2 protein level ([2]; ISG15 overexpressing A-T cells, 24 hr) | conjugation of SUMO-1, SUMO-2/3, and ubiquitin to MFN2 [3] | degradation of MFN2 [3] [%]
CC[C@@]1(O)C(=O)OCc2c1cc1n(c2=O)Cc2cc3ccccc3nc2-1 [CPT, camptothecin] | induced degradation |  |  |  |  | 
N#CC(C#N)=NNc1cccc(Cl)c1 [CCCP, carbonylcyanide m-chlorophenylhydrazone] |  | remained unaffected | 20 | slightly increased | induces conjugation | 20
